From patent US20130203790A1, “SULFUR-CONTAINING COMPOUNDS AS ANTI-PROLIFERATIVE AGENTS” (221076 ONTARIO INC., priority 2011, published 2013)

What was measured:
[1] = biological target: T1, t-PA (degradation of fibrin by tissue plasminogen activator) (Homo sapiens, UniProt P00750); assay: Fibrinolysis assay, microtiter plate turbidity (clot lysis time); format: biochemical; conditions: 500 nM Glu-plasminogen
T1 construct: purchased Genentech
Experimental: (§1) Coagulation and fibrinolysis were studied simultaneously in a 96-well microtiter plate-based assay system. Varying concentrations of drug in 50 μl buffer or an equivalent volume of saline were added to the wells. To this was added 100 μl of 6 μM fibrinogen, 1 μM Glu-plasminogen and 4 mM CaCl2. Reactions were initiated by addition of 50 μl of buffer containing 2 nM t-PA and 20 nM thrombin. Final concentrations of reagents in the wells were 3 μM fibrinogen, 500 nM Glu-plasminogen, 2 mM CaCl2, 0.05 nM t-PA, 5 nM thrombin and compounds of Formulas (II), (Ill), (IV) or (V) (0-400 μM). As positive controls, hirudin or D-Phe-Pro-Arg chloromethylketone (PPACK) was used in place of the subject compounds. Plates were incubated at 23° C. for 1 h with constant shaking and turbidity was monitored continuously at 405 nm. Clot times and lysis times were determined using instrument soft wave as the times to half maximal increase and decrease in turbidity, respectively. Data are expressed as the mean±SEM of three experiments, each done in triplicate.

[2] = biological target: T2, thrombin (thrombin-mediated conversion of fibrinogen to fibrin) (Homo sapiens, UniProt P00734); assay: Coagulation assay, microtiter plate turbidity (clot formation, thrombin clot time); format: biochemical
T2 construct: purchased Enzyme Research Laboratories
Experimental: as §1, with “[…] […]” for “Final concentrations of reagents in the wells were 3 μM fibrinogen, 500 nM Glu-plasminogen, 2 mM CaCl2, 0.05 nM t-PA, 5 nM thrombin and compounds of Formulas (II), (Ill), (IV) or (V) (0-400 μM). As positive controls, hirudin or D-Phe-Pro-Arg chloromethylketone (PPACK) was used in place of the subject compounds.”

[3] = test system: platelets in platelet rich plasma (ADP, collagen and TRAP agonists); assay: Platelet inhibition assay in platelet rich plasma (light transmission aggregometry, Chrono-Log System); format: cell-based, human; conditions: for inhibitory activity observed in PRP: any agonist tested (ADP, collagen, TRAP), compound 10, 25, 50 and 100 μM
Experimental: (§2) Platelet function studies were performed simultaneously in both whole blood (using whole blood impedance platelet aggregometry with a Multiplate System) and platelet rich plasma (light transmission aggregometry with a Chrono-Log System). Blood was collected from healthy individuals into vacutainers containing 3.2% (w/v) citrate and was used within 3 hours of collection. Platelet rich plasma (“PRP”) was prepared by centrifugation at 170 g for 15 minutes, and the platelet count measured and adjusted to 250×109/L for use in the light transmission aggregometry studies.
(§3) Each compound was tested at final concentrations of 10, 25, 50 and 100 μM. For each test, the compound was diluted 1/100 into the PRP or whole blood to obtain the final concentrations listed. The PRP or whole blood sample was allowed to stir in the aggregometer for 3 minutes prior to agonist addition. One compound was tested each day.
(§4) As a positive control to verify the sensitivity to inhibition of thrombin receptor agonist peptide (TRAP)-mediated aggregation, TRAP-induced aggregations were also done in the presence of eptifibatide, a glycoprotein IIb/IIIa inhibitor (final concentration of 77 μg/mL in PRP and 65 μg/mL in whole blood).
(§5) Materials used included: • The four channel light transmission aggregometer instrument used for the platelet rich plasma studies was from Chrono-Log Corporation. • The ADP and collagen agonists used for platelet rich plasma studies were from Chrono-Log Corporation. • The four channel Multiplate whole blood impedance platelet aggregometer (IPA) was from DiaPharma Group. • The ADP and collagen agonists used for the whole blood studies were provided by DiaPharma Group. The TRAP agonist used in both the whole blood and PRP studies was also obtained from DiaPharma Group.

[4] = test system: platelets in whole blood (ADP, collagen and TRAP agonists); assay: Platelet inhibition assay in whole blood (impedance platelet aggregometry, Multiplate System); format: cell-based, human; conditions: for dose dependence of the response in whole blood / reduction in response to agonists in whole blood (anti-platelet effect): all agonists; for dose dependence of the response in whole blood: 10-100 μM; for reduction in response to agonists in whole blood (anti-platelet effect): compound 10-100 μM
Experimental: as §2, §3, §4, §5

[5] = tested at 0-100 nM, 5 nM thrombin

T1 sequence (P00750 36-562): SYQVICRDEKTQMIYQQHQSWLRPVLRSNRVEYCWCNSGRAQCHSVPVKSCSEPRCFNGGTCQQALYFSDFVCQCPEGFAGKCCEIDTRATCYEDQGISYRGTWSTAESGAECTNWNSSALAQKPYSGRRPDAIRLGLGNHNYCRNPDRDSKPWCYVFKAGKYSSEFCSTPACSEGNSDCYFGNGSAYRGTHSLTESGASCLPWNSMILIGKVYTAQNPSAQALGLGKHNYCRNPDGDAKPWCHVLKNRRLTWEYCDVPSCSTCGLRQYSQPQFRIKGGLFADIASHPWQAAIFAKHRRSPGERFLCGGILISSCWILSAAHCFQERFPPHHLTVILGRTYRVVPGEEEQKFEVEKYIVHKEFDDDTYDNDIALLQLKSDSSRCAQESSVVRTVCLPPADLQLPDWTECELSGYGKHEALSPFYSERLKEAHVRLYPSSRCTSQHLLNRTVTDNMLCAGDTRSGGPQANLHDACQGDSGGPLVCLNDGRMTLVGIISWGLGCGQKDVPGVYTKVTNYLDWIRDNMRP

Row | Compound | effect on clot lysis times [1] | dose dependence of the response in whole blood [4] | inhibitory activity observed in PRP [3] | reduction in response to agonists in whole blood (anti-platelet effect) [4] | further results
1 | hirudin | lysis times were shortened | – | – | – | effect on clot formation and lysis profiles ([2]; compounds of the invention up to 400 μM, hirudin and PPACK as positive controls, 23° C., turbidity at 405 nm): inhibited clot formation and lysis; concentration causing complete inhibition of clotting [2, 5]: 25 nM; lowest concentration with measurable effect on clotting [2, 5]: 6.25 nM
2 | 2-methyldisulfanyl-pyrimidine [2-methyldisulfanyl-pyrimidine (V)] | – | positive dose dependent inhibition | – | – | inhibitory activity observed in PRP at highest concentration ([3]; all agonists, highest concentration tested (100 μM)): surprising inhibitory activity; reduction of platelet response to all agonists in whole blood ([4]; 100 μM): approximately 50%
3 | CSSc1ccc(N)cc1 [4-methyldisulfanyl-phenylamine (IV), 4-methyldisulfanyl-phenylamine] | – | does not appear to be dose dependent | no inhibitory activity | Some reduction in response to all agonists | –
4 | CSSc1ccncc1 [4-methyldisulfanyl-pyridine (II), 4-methyldisulfanyl-pyridine] | – | does not appear to be dose dependent | no inhibitory activity | reduction in response to all agonists | –
5 | CSSc1ccccn1 [2-methyldisulfanyl-pyridine (III), 2-methyldisulfanyl-pyridine] | – | does not appear to be dose dependent | no inhibitory activity | – | reduction in response to all agonists in whole blood ([4]; not dose dependent (10-100 μM)): ~25%
6 | D-Phe-Pro-Arg chloromethylketone [PPACK] | lysis times were shortened | – | – | – | –
